Patent US20080207614A1, “QUINAZOLINE DERIVATIVES FOR THE TREATMENT AND PREVENTION OF DIABETES AND OBESITY” (SK CHEMICALS CO., LTD., priority 2004, published 2008)

Experiments:
[1] = tested on: C2C12 muscle cells; test: Analysis of glucose absorption (2-deoxyglucose) in differentiated C2C12 muscle cells; type: cell-based; conditions: test materials 10 μM, times relative to control group
Method in brief: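 Uptake of 0.2 μCi 2-deoxyglucose over 20 min, counted radiometrically in lysed cells. Before tracer, compounds (10 μM) were applied for 30 min to C2C12 cells differentiated 6 days in 1% serum and equilibrated 3 h in 5 mM glucose KRB.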

[2] = tested on: AMPK; test: Measurement of AMPK activity by Western blot in C2C12 cells; type: cell-based; design: key to AMPK activity (degree of phosphorylation of serine-79 and threonine-172): fold increase in threonine-172 phosphorylation; AMPK activity (degree of phosphorylation of serine-79): unit not given here; conditions: 10 μM for 50 minutes; for AMPK activity (degree of phosphorylation of serine-79 and threonine-172): no superscript: Western blot of serine-79 and threonine-172 phosphorylation; for AMPK activity (class: degree of phosphorylation of threonine-172): strong/mild/weak; for AMPK activity (degree of phosphorylation of serine-79): footnote a: Western blot of serine-79 phosphorylation
Method in brief: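 Western blot readout of AMPK Thr-172 and ACC Ser-79 phosphorylation, normalised against ERK, served as the activity measure. Cells were C2C12 after differentiation, treated 50 minutes with 10 μM test material. Grading by Thr-172 increase: ≥3-fold strong, 1-3-fold mild, <1-fold weak.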

Row | Compound | Glucose absorption [1] | AMPK activity (degree of phosphorylation of serine-79 and threonine-172) [2] | AMPK activity (class: degree of phosphorylation of threonine-172) [2] | AMPK activity (degree of phosphorylation of serine-79) [2]
1 | COC(c1ccccc1)c1nc(NCc2ccc3c(c2)OCO3)c2ccccc2n1 (centres unmarked) [Compound 363, Benzo[1,3]dioxol-5-ylmethyl-[2-(methoxyphenylmethyl)-quinazolino-4-yl]-amine] | 1.3 | 1.4 | – | –
2 | c1ccc2c(NCc3ccc4c(c3)OCO4)ncnc2c1 [Compound 407, Benzo[1,3]dioxol-5-ylmethylquinazolino-4-ylamine] | 1.5 | 1.3 | – | –
3 | FCCNc1nc(-c2ccccc2)nc2ccccc12 [Compound 114, (2-Fluoro-ethyl)-(2-phenylquinazolino-4-yl)-amine] | 2.2 | 2.0 | strong (“strong” means that the degree of phosphorylation of threonine-172 increased by 3 times or more) | –
4 | COc1ccc(CNc2nc(C(C)C)nc3ccccc23)c(OC)c1 [Compound 271, (2,4-Dimethoxybenzyl)-(2-isopropylquinazolino-4-yl)-amine] | 0.8 | 2.4 | – | –
5 | COc1cc(CNc2nc(N3CCCC3)nc3ccccc23)cc(OC)c1 [Compound 303, (3,5-Dimethoxybenzyl)-(2-pyrrolidino-1-ylquinazolino-4-yl)-amine] | 1.0 | 1.0 | – | –
6 | COc1ccc(CNc2nc(C(C)c3ccccc3)nc3ccccc23)c(OC)c1 (centres unmarked) [Compound 379, (2,4-Dimethoxybenzyl)-[2-(1-phenylethyl)-quinazolino-4-yl]-amine] | 1.1 | 6.1 | – | –
7 | COc1cccc(CNc2nc(C(C)C)nc3ccccc23)c1 [Compound 176, (2-Isopropylquinazolino-4-yl)-(3-methoxybenzyl)-amine] | 2.4 | 4.4 | strong (“strong” means that the degree of phosphorylation of threonine-172 increased by 3 times or more) | –
8 | CCCc1nc(NCc2cccc(OC)c2OC)c2ccccc2n1 [Compound 397, (2,3-Dimethoxybenzyl)-(2-propylquinazolino-4-yl)-amine] | 1.3 | 6.5 | – | –
9 | CC(C)c1nc(NCc2cccc(C(F)(F)F)c2)c2ccccc2n1 [Compound 178, (2-Isopropylquinazolino-4-yl)-(3-trifluoromethylbenzyl)-amine] | 4.2 | 5.7 | strong (“strong” means that the degree of phosphorylation of threonine-172 increased by 3 times or more) | –
10 | CCSc1nc(NCCN2CCOCC2)c2ccccc2n1 [Compound 11, (2-Ethylsulfanylquinazolino-4-yl)-(2-morpholino-4-ylethyl)-amine] | 1.0 | – | – | 3.2^a
11 | COc1cccc(CNc2nc(C3CCCCC3)nc3ccccc23)c1 [Compound 200, (2-Cyclohexylquinazolino-4-yl)-(3-methoxybenzyl)-amine] | 2.7 | 1.5 | strong (“strong” means that the degree of phosphorylation of threonine-172 increased by 3 times or more) | –
12 | ClC(Cl)(Cl)c1nc(NCCCCc2ccccc2)c2ccccc2n1 [Compound 6, (4-Phenylbutyl)-(2-trichloromethylquinazolino-4-yl)-amine] | 1.4 | – | – | 4.7^a
13 | COc1ccc(OC)c(CNc2nc(N3CCCCC3)nc3ccccc23)c1 [Compound 296, (2,5-Dimethoxybenzyl)-(2-piperidino-1-ylquinazolino-4-yl)-amine] | 0.9 | 1.0 | – | –
14 | CCSc1nc(NCc2ccc3c(c2)OCO3)c2ccccc2n1 [Compound 37, Benzo[1,3]dioxol-5-ylmethyl-(2-ethylsulfanylquinazolino-4-yl)-amine] | 2.2 | – | strong (“strong” means that the degree of phosphorylation of threonine-172 increased by 3 times or more) | –
15 | COc1cc(OC)c(CNc2nc(C(C)C)nc3ccccc23)c(OC)c1 [Compound 327, (2-Isopropylquinazolino-4-yl)-(2,4,6-trimethoxybenzyl)-amine] | 1.3 | 4.4 | – | –
16 | c1ccc(-c2nc(NCC(c3ccccc3)c3ccccc3)c3ccccc3n2)cc1 [Compound 133, (2,2-Diphenylethyl)-(2-phenylquinazolino-4-yl)-amine] | 2.1 | 1.3 | mild (“mild” means that the degree of phosphorylation of threonine-172 increased by 1 to 3 times) | –

Row | Compound | Glucose absorption [1] | AMPK activity (degree of phosphorylation of serine-79 and threonine-172) [2] | AMPK activity (class: degree of phosphorylation of threonine-172) [2] | AMPK activity (degree of phosphorylation of serine-79) [2]
17 | COc1ccc(CNc2nc(C(C)C)nc3ccccc23)cc1 [Compound 177, (2-Isopropylquinazolino-4-yl)-(4-methoxybenzyl)-amine] | 2.8 | 5.5 | strong (“strong” means that the degree of phosphorylation of threonine-172 increased by 3 times or more) | –
18 | Brc1ccc(CNc2nc(-c3ccccc3)nc3ccccc23)cc1 [Compound 148, (4-Bromobenzyl)-(2-phenylquinazolino-4-yl)-amine] | 2.1 | 1.7 | strong (“strong” means that the degree of phosphorylation of threonine-172 increased by 3 times or more) | –
19 | COc1ccccc1CNc1nc(Cc2ccccc2)nc2ccccc12 [Compound 328, (2-Benzylquinazolino-4-yl)-(2-methoxybenzyl)-amine] | 1.4 | 3.8 | – | –
20 | COc1ccc(CNc2nc(C(C)C)nc3ccccc23)cc1OC [Compound 324, (3,4-Dimethoxybenzyl)-(2-isopropylquinazolino-4-yl)-amine] | 1.3 | 2.3 | – | –
21 | Brc1ccc(CCNc2nc(-c3ccccc3)nc3ccccc23)cc1 [Compound 137, [2-(4-Bromophenyl)-ethyl]-(2-phenylquinazolino-4-yl)-amine] | 2.4 | 3.1 | strong (“strong” means that the degree of phosphorylation of threonine-172 increased by 3 times or more) | –
22 | CCCc1nc(NCc2ccc3c(c2)OCO3)c2ccccc2n1 [Compound 396, Benzo[1,3]dioxol-5-ylmethyl-(2-propylquinazolino-4-yl)-amine] | 1.3 | 7.3 | – | –
23 | COc1ccc(CNc2nc(Cc3ccccc3)nc3ccccc23)c(OC)c1 [Compound 272, (2-Benzylquinazolino-4-yl)-(2,4-dimethoxybenzyl)-amine] | 0.4 | 3.4 | – | –
24 | CCCCN(C)c1nc(-c2ccccc2)nc2ccccc12 [Compound 138, Butylmethyl-(2-phenylquinazolino-4-yl)-amine] | 2.4 | 2.9 | strong (“strong” means that the degree of phosphorylation of threonine-172 increased by 3 times or more) | –
25 | c1ccc(-c2nc(NCc3cccnc3)c3ccccc3n2)cc1 [Compound 111, (2-Phenylquinazolino-4-yl)-pyridino-3-ylmethylamine] | 2.4 | 1.8 | strong (“strong” means that the degree of phosphorylation of threonine-172 increased by 3 times or more) | –
26 | Cc1nc(NCc2cccc(F)c2)c2ccccc2n1 [Compound 171, (3-Fluorobenzyl)-(2-methylquinazolino-4-yl)-amine] | 2.2 | 6.6 | strong (“strong” means that the degree of phosphorylation of threonine-172 increased by 3 times or more) | –
27 | COc1cccc(CNc2ncnc3ccccc23)c1OC [Compound 408, (2,3-Dimethoxybenzyl)-quinazolino-4-ylamine] | 1.6 | 3.5 | – | –
28 | COc1cc(CNc2nc(C3CC3)nc3ccccc23)cc(OC)c1 [Compound 387, (2-Cyclopropylquinazolino-4-yl)-(3,5-dimethoxybenzyl)-amine] | 1.2 | 1.5 | – | –
29 | Clc1ccc(CNc2nc(-c3ccccc3)nc3ccccc23)c(Cl)c1 [Compound 108, (2,4-Dichlorobenzyl)-(2-phenylquinazolino-4-yl)-amine] | 2.2 | 2.2 | strong (“strong” means that the degree of phosphorylation of threonine-172 increased by 3 times or more) | –
30 | COc1cccc(CNc2ncnc3ccccc23)c1 [Compound 405, (3-Methoxybenzyl)-quinazolino-4-ylamine] | 2.2 | 2.7 | – | –
31 | COc1ccc(OC)c(CNc2ncnc3ccccc23)c1 [Compound 413, (2,5-Dimethoxybenzyl)-quinazolino-4-ylamine] | 1.2 | 1.7 | – | –
